Measurements as given in US10246457B2, “Indazole and azaindazole Btk inhibitors” (MERCK SHARP & DOHME CORP., priority 2015, dated 2019).

Legend:
[1] = target: 100P Btk enzyme (activated full-length Btk) (Homo sapiens (Human), UniProt Q06187); assay: 100P Btk Enzyme Activity Assay (LANCE TR-FRET); assay type: biochemical; details: activated Btk (100P), 25 μM ATP, 60 minute compound and enzyme incubation; top concentration 1000 nM; read-out: Btk binding IC50 (nM) with 100 P
Procedure: Activated full-length Btk recombinant enzyme was expressed and purified in the same manner as the […] enzyme, except an auto-phosphorylation step was added to the purification scheme. […] This protein represents the activated state of the Btk enzyme. […] Btk Enzyme Activity Assay Btk enzymatic activity was determined with the LANCE (Lanthanide Chelate Excite) TR-FRET (lime-resolved fluorescence resonance energy transfer) assay. […] MW=79378 Da). […] Phosphorylation reactions were allowed to proceed for 45 minutes. […] After 60 minutes incubation with detection reagents, reaction plates were read on a PerkinElmer EnVision plate reader using standard TR-FRET protocol. Briefly, excitation of donor molecules (Eu-chelate:anti-phospho-antibody) with a laser light source at 337 nm produces energy that can be transferred to Dylight-650 acceptor molecules if this donor:acceptor pair is within close proximity. Fluorescence intensity at both 665 nm (acceptor) and 615 nm (donor) are measured and a TR-FRET ratio calculated for each well (acceptor intensity/donor intensity). […] (Log10) compound concentrations.

[2] = target: 25P Btk enzyme (un-activated full-length Btk) (Homo sapiens (Human), UniProt Q06187); assay: 25P Btk Enzyme Activity Assay (LANCE TR-FRET); assay type: biochemical; details: un-activated Btk (25P), 25 μM ATP, 60 minute compound and enzyme incubation; read-out: Btk binding IC50 (nM) with 25 P
Procedure: Preparation of Un-Activated Btk Enzyme (25P Btk)
Un-activated full-length Btk recombinant protein was purified from baculovirus-transfected Sf21 cells. […] This protein represents the un-activated state of the Btk enzyme.
25P Btk Enzyme Activity Assay
Btk enzymatic activity was determined with the LANCE (Lanthanide Chelate Excite) TR-FRET (lime-resolved fluorescence resonance energy transfer) assay. […] To each well of a black non-binding surface Corning 384-well microplate (Corning Catalog #3820), 5 nL of compound (2000 fold dilution in final assay volume of 10 μL) was dispensed, followed by the addition of 7.5 μL of 1× kinase buffer (50 mM Hepes 7.5, 10 mM MgCl2, 0.01% Brij-35, 1 mM EGTA, 0.05% BSA and 1 mM DTT) containing 26.67 pg/μL (266.7 pM) of 25P Btk enzyme (recombinant protein from baculovirus-transfected Sf9 cells: full-length Btk; MW=79378 Da). Following a 60 minute compound and enzyme incubation, each reaction was initiated by the addition of 2.5 μL 1× kinase buffer containing 8 μM biotinylated “A5” peptide (Biotin-EQEDEPEGDYFEWLE-NH2), and 100 μM ATP. The final reaction in each well of 10 consists of 200 pM 25P Btk, 2 μM biotin-A5-peptide, and 25 μM ATP. Phosphorylation reactions were allowed to proceed for 120 minutes. Reactions were immediately quenched by the addition of 20 uL of 1× quench buffer (15 mM EDTA, 25 mM Hepes 7.3, and 0.1% Triton X-100) containing detection reagents (0.626 nM of LANCE-Eu-W1024-anti-phosphoTyrosine antibody, PerkinElmer and 86.8 nM of Streptavidin-conjugated Dylight 650, Dyomics/ThermoFisher Scientific). After 60 minutes incubation with detection reagents, reaction plates were read on a PerkinElmer EnVision plate reader using standard TR-FRET protocol. Briefly, excitation of donor molecules (Eu-chelate:anti-phospho-antibody) with a laser light source at 337 nm produces energy that can be transferred to Dylight-650 acceptor molecules if this donor:acceptor pair is within close proximity. Fluorescence intensity at both 665 nm (acceptor) and 615 nm (donor) are measured and a TR-FRET ratio calculated for each well (acceptor intensity/donor intensity). IC50 values were determined by 4 parameter robust fit of TR-FRET ratio values vs. (Log10) compound concentrations.

100P Btk enzyme (activated full-length Btk), sequence (Q06187 whole entry): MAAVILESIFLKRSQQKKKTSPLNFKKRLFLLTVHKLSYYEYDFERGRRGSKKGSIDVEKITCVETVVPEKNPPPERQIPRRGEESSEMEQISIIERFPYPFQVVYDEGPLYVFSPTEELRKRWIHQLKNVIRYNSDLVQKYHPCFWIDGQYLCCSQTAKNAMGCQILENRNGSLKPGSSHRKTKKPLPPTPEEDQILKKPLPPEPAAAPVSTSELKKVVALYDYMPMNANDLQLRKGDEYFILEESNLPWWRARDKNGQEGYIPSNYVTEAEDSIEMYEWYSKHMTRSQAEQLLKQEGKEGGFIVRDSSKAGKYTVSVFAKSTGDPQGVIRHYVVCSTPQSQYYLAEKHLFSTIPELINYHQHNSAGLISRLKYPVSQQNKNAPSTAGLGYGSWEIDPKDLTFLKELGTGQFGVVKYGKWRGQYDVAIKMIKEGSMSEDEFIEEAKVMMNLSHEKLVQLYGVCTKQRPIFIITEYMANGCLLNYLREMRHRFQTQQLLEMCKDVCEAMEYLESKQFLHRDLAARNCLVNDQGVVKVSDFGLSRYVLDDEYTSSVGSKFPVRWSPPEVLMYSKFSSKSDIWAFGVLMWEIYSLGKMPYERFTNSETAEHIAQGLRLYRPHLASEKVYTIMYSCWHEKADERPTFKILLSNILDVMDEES
25P Btk enzyme (un-activated full-length Btk), sequence (Q06187 whole entry): as above

Compound | IC50 [1] | IC50 [2]
CC(C)(C)c1cc(F)c2c(=O)n(-c3cccc(-c4cc(-c5cnn(C6CCOCC6)c5)c5[nH]nc(N)c5c4)c3CO)ncc2c1 [Example 25, 2-(3-(3-amino-7-(1-(tetrahydro-2H-pyran-4-yl)-1H-pyrazol-4-yl)-1H-indazol-5-yl)-2-(hydroxymethyl)phenyl)-6-(tert-butyl)-8-fluorophthalazin-1(2H)-one] | 2.6 nM | 0.18 nM
CC(C)n1cc(-c2cc(-c3cccc(-n4ncc5cc(C(C)(C)C)cc(F)c5c4=O)c3CO)cc3c(N)n[nH]c23)cn1 [Example 6, 2-[3-{3-amino-7-[1-(1-methylethyl)-1H-pyrazol-4-yl]-1H-indazol-5-yl}-2-(hydroxymethyl)phenyl]-6-tert-butyl-8-fluorophthalazin-1(2H)-one] | 3.8 nM | 0.15 nM
CC(C)(C)c1cc(F)c2c(=O)n(-c3cccc(-c4cc(-c5cnn(CC(=O)O)c5)c5[nH]nc(N)c5c4)c3CO)ncc2c1 [Example 23, 2-(4-(3-amino-5-(3-(6-(tert-butyl)-8-fluoro-1-oxophthalazin-2(1H)-yl)-2-(hydroxymethyl)phenyl)-1H-indazol-7-yl)-1H-pyrazol-1-yl)acetic acid] | 20 nM | 0.18 nM
Cn1nc(N)c2cc(-c3cccc(-n4ncc5cc(C(C)(C)C)cc(F)c5c4=O)c3CO)cc(C(N)=O)c21 [Example 5, 3-amino-5-[3-(6-tert-butyl-8-fluoro-1-oxophthalazin-2 (1H)-yl)-2-(hydroxymethyl)phenyl]-1-methyl-1H-indazole-7-carboxamide] | – | 47.3 nM
CC(C)(C)c1cc(F)c2c(=O)n(-c3cccc(-c4cc(-c5cccnc5)c5[nH]nc(N)c5c4)c3CO)ncc2c1 [Example 10, 2-[3-(3-amino-7-pyridin-3-yl-1H-indazol-5-yl)-2-(hydroxymethyl)phenyl]-6-tert-butyl-8-fluorophthalazin-1(2H)-one] | 299 nM | 0.8 nM
Cc1cc2[nH]nc(N)c2cc1-c1cccc(-n2ncc3cc(C(C)(C)C)cc(F)c3c2=O)c1CO [Example 2, 2-[3-(3-amino-6-methyl-1H-indazol-5-yl)-2-(hydroxymethyl)phenyl]-6-tert-butyl-8-fluorophthalazin-1(2H)-one] | 341 nM | 10.9 nM
Cn1cc(-c2cc(-c3cccc(NC(=O)c4cc5c(s4)CCCC5)c3CO)cc3c(N)n[nH]c23)cn1 [Example 18, N-{3-[3-amino-7-(1-methyl-1H-pyrazol-4-yl)-1H-indazol-5-yl]-2-(hydroxymethyl)phenyl}-4,5,6,7-tetrahydro-1-benzothiophene-2-carboxamide] | 11.6 nM | 0.13 nM
Cc1c(NC(=O)c2ccc(C(C)(C)C)cc2F)cccc1-c1cc(C(N)=O)c2[nH]nc(N)c2c1 [Example 7, 3-amino-5-(3-{[(4-tert-butyl-2-fluorophenyl)carbonyl]amino}-2-methylphenyl)-1H-indazole-7-carboxamide] | – | 64.5 nM
CC(C)(C)c1cc(F)c2c(=O)n(-c3cccc(-c4cc(C(=O)O)c5[nH]nc(N)c5c4)c3CO)ncc2c1 [Example 1, 3-amino-5-[3-(6-tert-butyl-8-fluoro-1-oxophthalazin-2(1H)-yl)-2-(hydroxymethyl)phenyl]-1H-indazole-7-carboxylic acid] | 112 nM | 0.14 nM
CC(C)(C)c1cc(F)c2c(=O)n(-c3cccc(-c4cc(-c5ccccn5)c5[nH]nc(N)c5c4)c3CO)ncc2c1 [Example 22, 2-(3-(3-amino-7-(pyridin-2-yl)-1H-indazol-5-yl)-2-(hydroxymethyl)phenyl)-6-(tert-butyl)-8-fluorophthalazin-1(2H)-one] | 17.4 nM | 0.11 nM
Cc1nn(C)cc1-c1cc(-c2cccc(-n3ncc4cc(C(C)(C)C)cc(F)c4c3=O)c2CO)cc2c(N)n[nH]c12 [Example 27, 2-(3-(3-amino-7-(1,3-dimethyl-1H-pyrazol-4-yl)-1H-indazol-5-yl)-2-(hydroxymethyl)phenyl)-6-(tert-butyl)-8-fluorophthalazin-1(2H)-one] | 69.5 nM | 0.43 nM
CC(C)(C)c1cc(F)c2c(=O)n(-c3cccc(-c4cc(C(F)(F)F)c5[nH]nc(N)c5c4)c3CO)ncc2c1 [Example 4, 2-{3-[3-amino-7-(trifluoromethyl)-1H-indazol-5-yl]-2-(hydroxymethyl)phenyl}-6-tert-butyl-8-fluorophthalazin-1(2H)-one] | – | 38.6 nM
CC(C)(C)c1cc(F)c2c(=O)n(-c3cccc(-c4cc(C(=O)N5CCOCC5)c5[nH]nc(N)c5c4)c3CO)ncc2c1 [Example 14, 2-{3-[3-amino-7-(morpholin-4-ylcarbonyl)-1H-indazol-5-yl]-2-(hydroxymethyl)phenyl}-6-tert-butyl-8-fluorophthalazin-1(2H)-one] | – | 173 nM

Further compounds by falling IC50 [2], results first:

IC50 [1] | IC50 [2] | Compound
– | 268 nM | Cc1c(NC(=O)c2ccc(C(C)(C)C(F)(F)F)cc2F)cccc1-c1cc(C(N)=O)c2[nH]nc(N)c2c1 [Example 8, 3-amino-5-[3-({[2-fluoro-4-(2,2,2-trifluoro-1,1-dimethylethyl)phenyl]carbonyl}amino)-2-methylphenyl]-1H-indazole-7-carboxamide]
– | 29.6 nM | CC(C)(C)c1cc(F)c2c(=O)n(-c3cccc(-c4ccc5c(c4)c(N)nn5Cc4ccncc4)c3CO)ncc2c1 [Example 12, 2-{3-[3-amino-1-(pyridin-4-ylmethyl)-1H-indazol-5-yl]-2-(hydroxymethyl)phenyl}-6-tert-butyl-8-fluorophthalazin-1(2H)-one]
– | 16.7 nM | Cc1c(NC(=O)c2ccc(C(C)(C)C)cc2)cccc1-c1cc(-c2cnn(C)c2)c2[nH]nc(N)c2c1 [Example 13, N-{3-[3-amino-7-(1-methyl-1H-pyrazol-4-yl)-1H-indazol-5-yl]-2-methylphenyl}-4-tert-butylbenzamide]
– | 7.7 nM | CC(C)(C)c1cc(F)c2c(=O)n(-c3cccc(-c4ccc5[nH]nc(N)c5n4)c3CO)ncc2c1 [Example 20, 2-[3-(3-amino-1H-pyrazolo[4,3-b]pyridin-5-yl)-2-(hydroxymethyl)phenyl]-6-tert-butyl-8-fluorophthalazin-1(2H)-one]
360 nM | 1.7 nM | CC(C)(C)c1cc(F)c2c(=O)n(-c3cccc(-c4cc(-c5cnn6c5CCCC6)c5[nH]nc(N)c5c4)c3CO)ncc2c1 [Example 28, 2-(3-(3-amino-7-(4,5,6,7-tetrahydropyrazolo[1,5-a]pyridin-3-yl)-1H-indazol-5-yl)-2-(hydroxymethyl)phenyl)-6-(tert-butyl)-8-fluorophthalazin-1(2H)-one]
429 nM | 0.48 nM | CC(C)(C)c1cc(F)c2c(=O)n(-c3cccc(-c4cc(-c5ccccc5)c5[nH]nc(N)c5c4)c3CO)ncc2c1 [Example 19, 2-[3-(3-amino-7-phenyl-1H-indazol-5-yl)-2-(hydroxymethyl)phenyl]-6-tert-butyl-8-fluorophthalazin-1(2H)-one]
31.5 nM | 0.28 nM | CC(C)(C)c1cc(F)c2c(=O)n(-c3cccc(-c4cc(-c5cnn(C(C)(C)C(=O)O)c5)c5[nH]nc(N)c5c4)c3CO)ncc2c1 [Example 24, 2-(4-(3-amino-5-(3-(6-(tert-butyl)-8-fluoro-1-oxophthalazin-2(1H)-yl)-2-(hydroxymethyl)phenyl)-1H-indazol-7-yl)-1H-pyrazol-1-yl)-2-methylpropanoic acid]
5.3 nM | 0.073 nM | Cn1cc(-c2cc(-c3cccc(-n4ncc5cc(C(C)(C)C)cc(F)c5c4=O)c3CO)cc3c(N)n[nH]c23)cn1 [Example 9, 2-{3-[3-amino-7-(1-methyl-1H-pyrazol-4-yl)-1H-indazol-5-yl]-2-(hydroxymethyl)phenyl}-6-tert-butyl-8-fluorophthalazin-1(2H)-one]
